# Legend:
# [1] = test system: HEL cells (containing the JAK2 V617F mutant); experiment: STAT5 phosphorylation in HEL cells, Western blot; assay type: cell-based, Human; settings: for concentration up to which no inhibition of STAT5 phosphorylation was observed: 11: 1-hour incubation
# [2] = molecular target: JAK2 JH2 WT (Homo sapiens, UniProt O60674); assay type: binding
# [3] = Parallel Artificial Membrane Permeation Assay; settings: for PAMPA permeability, in words: PAMPA values close or equal to 0; for Papp at 18 h: pH 7.4
# [4] = test system: TF-1 cells (containing wild-type JAK2); experiment: STAT5 phosphorylation in TF-1 cells, Western blot; assay type: cell-based, Human; settings: 1 hour
# [5] = test system: TF-1 cells starved of cytokine (WT JAK2); experiment: Stimulation of STAT5 phosphorylation in TF-1 cells starved of cytokine; assay type: cell-based, Human; settings: 0.1, 0.5, and 2 μM
# Sequence of JAK2 JH2 WT (O60674 536-812): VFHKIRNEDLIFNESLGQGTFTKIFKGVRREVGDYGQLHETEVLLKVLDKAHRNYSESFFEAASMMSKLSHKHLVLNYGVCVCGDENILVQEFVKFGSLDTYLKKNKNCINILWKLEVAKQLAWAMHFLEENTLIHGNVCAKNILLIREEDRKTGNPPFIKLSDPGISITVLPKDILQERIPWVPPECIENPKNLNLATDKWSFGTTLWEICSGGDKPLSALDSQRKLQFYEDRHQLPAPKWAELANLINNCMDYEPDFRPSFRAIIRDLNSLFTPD
compound,measurement,setting,value
"Nc1nc(Nc2ccc(S(N)(=O)=O)cc2)nn1C(=O)c1c(F)cccc1F [Compound 1, JNJ7706621, reference compound]",IC50,"[1]; Homo sapiens, HEL, read-out: IC50 (inhibition of STAT-5 phosphorylation)",1000 to 5000 nM
"Nc1nc(Nc2ccc(S(N)(=O)=O)cc2)nn1C(=O)Nc1ccc(-c2cccc(C(=O)O)n2)cc1 [Compound 3, 6-(4-(5-amino-3-((4-sulfamoylphenyl)amino)-1H-1,2,4-triazole-1-carboxamido)phenyl)picolinic acid]",loss in binding affinity compared to 2,[2]; JAK2 JH2,3 fold
"Nc1nc(Nc2ccc(S(N)(=O)=O)cc2)nn1C(=O)Nc1ccc(-c2cccc(C(=O)O)c2)cc1 [Compound 7, 4’-(5-amino-3-((4-sulfamoylphenyl)amino)-1H-1,2,4-triazole-1-carboxamido)-[1,1’-biphenyl]-3-carboxylic acid]","PAMPA permeability, in words",[3],essentially impermeable
"COC(=O)c1cccc(-c2ccc(NC(=O)n3nc(Nc4ccc(S(N)(=O)=O)cc4)nc3N)cc2)c1 [Compound 8, Methyl 4’-(5-amino-3-((4-sulfamoylphenyl)amino)-1H-1,2,4-triazole-1-carboxamido)-[1,1’-biphenyl]-3-carboxylate]",loss in binding affinity compared to 7,[2]; JAK2 JH2,about 3 orders of magnitude
same,"PAMPA permeability, in words",[3],essentially impermeable
"Nc1nc(Nc2ccc(S(N)(=O)=O)cc2)nn1C(=O)Nc1ccc(-c2ccccc2)cc1 [Compound 9, N-([1,1’-biphenyl]-4-yl)-5-amino-3-((4-sulfamoylphenyl)amino)-1H-1,2,4-triazole-1-carboxamide]",loss in binding affinity compared to 7,[2]; JAK2 JH2,about 3 orders of magnitude
same,"PAMPA permeability, in words",[3],essentially impermeable
"Nc1nc(Nc2ccc(S(N)(=O)=O)cc2)nn1C(=O)Nc1ccc(-c2ccc(OCc3ccccc3)c(C(=O)O)c2)cc1 [Compound 11, 4’-(5-amino-3-((4-sulfamoylphenyl)amino)-1H-1,2,4-triazole-1-carboxamido)-4-(benzyloxy)-[1,1’-biphenyl]-3-carboxylic acid]",concentration up to which no inhibition of STAT5 phosphorylation was observed,"[1]; HEL cells, Western blot",> 40 µM
"Nc1nc(Nc2ccc(S(N)(=O)=O)cc2)nn1C(=O)Nc1ccc(-c2cc(OCc3ccccc3)cc(C(=O)O)c2)cc1 [Compound 12, 4’-(5-amino-3-((4-sulfamoylphenyl)amino)-1H-1,2,4-triazole-1-carboxamido)-5-(benzyloxy)-[1,1’-biphenyl]-3-carboxylic acid]",concentration up to which no inhibition of STAT5 phosphorylation was observed,"[1]; HEL cells, Western blot",> 25 µM
same,weaker binder than 11,[2]; WT JAK2 JH2,2 fold
same,increase in permeability compared to its isomer 11,[3]; PAMPA,3 fold
"CNC(=O)c1ccc(Nc2nc(N)n(C(=O)Nc3ccc(-c4ccc(OCc5ccccc5)c(C(=O)O)c4)cc3)n2)cc1 [Compound 13, 4’-(5-amino-3-((4-(methylcarbamoyl)phenyl)amino)-1H-1,2,4-triazole-1-carboxamido)-4-(benzyloxy)-[1,1’-biphenyl]-3-carboxylic acid]",inhibition of STAT-5 phosphorylation,"[1]; HEL cells, 20 μM, Western blot",complete inhibition
same,concentration range in which inhibition of STAT5 phosphorylation was observed,"[1]; HEL cells, tested at 2-30 μM, 1 hour",10 to 20 µM
same,inhibition of STAT-5 phosphorylation,"[4]; 20 μM, Western blot",complete inhibition
same,concentration range in which inhibition of STAT5 phosphorylation was observed,[4]; tested at 2-30 μM,10 to 20 µM
same,stronger binding for WT JH2 than 2,[2],10 fold
same,stimulation of STAT5 phosphorylation,[5],no stimulation of STAT5 phosphorylation was observed
same,reduced permeability (compared to 11),[3]; PAMPA,~2 fold
"CNC(=O)c1ccc(Nc2nc(N)n(C(=O)Nc3ccc(-c4cc(OCc5ccccc5)cc(C(=O)O)c4)cc3)n2)cc1 [Compound 14, 4’-(5-amino-3-((4-(methylcarbamoyl)phenyl)amino)-1H-1,2,4-triazole-1-carboxamido)-5-(benzyloxy)-[1,1’-biphenyl]-3-carboxylic acid]",concentration up to which no inhibition of STAT5 phosphorylation was observed,"[1]; HEL cells, Western blot",> 30 µM
same,improved binding affinity compared to 12,[2]; WT JAK2 JH2,2 fold
"O=C(N[C@H](CO)[C@H](O)c1ccc([N+](=O)[O-])cc1)C(Cl)Cl [chloramphenicol, reference compound]",Papp at 18 h,[3]; PAMPA,4.36 to 4.99 ×10⁻⁶ cm/s
"Cn1c(=O)c2[nH]cnc2n(C)c1=O.O [theophylline, reference compound]",Papp at 18 h,[3]; PAMPA,0.27 to 0.33 ×10⁻⁶ cm/s

# — article PMC9939005 (Journal of medicinal chemistry, 2022)
